The target in the assay is CASV L-Cterm (CAS virus, UniProt J7HBG8). The assay is classed as binding.

In the case of `C[n+]1cn([C@@H]2O[C@H](COP(=O)(O)OP(=O)(O)OP(=O)(O)O)[C@@H](O)[C@H]2O)c2nc(N)[nH]c(=O)c21` [m^7GTP], the “X-ray crystallography, crystal soaking” value was “the cap-analogue was bound to F1839 at the periphery of the β-sheet”.

The values above are taken from PMC5444859 (PLoS Pathogens, 2017).
